Source: US20200281208A1 (ISAGRO S.p.A., priority 2015, published 2020)
Like-named read-outs stand apart in the source and are kept apart here.

What was measured:
Assay type in all cases: in vivo
[1] = tested on: Pseudomonas syringae pv tomato; assay: Biological evaluation of cupric salts of carboxylic acids on Pseudomonas syringae pv tomato, tomato plants in cold greenhouse (Example 10, comparative); settings: 250 ppm a.i., survey 7 days after infection/treatment, 10 plants per plot
From the text: Biological Evaluation of Cupric Salts of Carboxylic Acids on Pseudomonas syringae pv tomato
A comparison was effected between the bactericidal activity of various cupric salts of carboxylic acids described in patent application US2009/136581 with that of crystalline foiin 1.
(§1) The day after application, the plants were infected with a suspension of bacterial cells previously cultivated in Nutrient Broth culture broth, at a bacterium-broth concentration of 1:4.
(§2) The inoculum, kept under stirring for 2 days, was sprayed on the plants in the morning, in guttation phase, with knapsack sprayers.
(§3) Visual surveys were effected 7 days after each infection/treatment, analyzing 10 plants per plot, analyzing the percentage of leaf surface affected.

[2] = tested on: Tomato plants; assay: Phytotoxicity on treated tomato plants (Example 10, comparative); settings: 250 ppm a.i.
From the text: as §3

[3] = tested on: Pseudomonas syringae pv tomato; settings: survey 7 days after infection/treatment; for Leaf surface affected (%): tomato plants
From the text: Biological Evaluation of the […] of […] on Pseudomonas syringae pv tomato
In the above table, SC is an abbreviation of “concentrated aqueous suspension” and TQ of “as such”.
as §1, §2
Visual surveys were effected 7 days after each infection/treatment, analyzing 50 plants per plot, analyzing the percentage of plants infected and the percentage of leaf surface affected.

O=C(O)CCCC(=O)O.[Cu] [Copper glutarate]
Leaf surface affected (%) [1]: 69%
Phytotoxicity (%) [2]: 0%

O=C(O)CC(O)C(=O)O.[Cu] (centres unmarked) [Copper malate]
Leaf surface affected (%) [1]: 5%
Phytotoxicity (%) [2]: 20%

O=C(O)CCC(=O)O.[Cu] [Copper succinate]
Leaf surface affected (%) [1]: 50%
Phytotoxicity (%) [2]: 0%

O=C([O-])C(O)C(O)C(=O)[O-].[Cu+2] (centres unmarked) [Copper tartrate]
Leaf surface affected (%) [1]: 69%
Phytotoxicity (%) [2]: 0%

[Cu+2].[OH-].[OH-] [Cu(OH)2, copper hydroxide]
Quantity infected plants (%) ([3]; 6.25 g a.i./100 l): 37.5%
Quantity infected plants (%) ([3]; 12.5 g a.i./100 l): 35.7%
Quantity infected plants (%) ([3]; 25 g a.i./100 l, 500 l per hectare, 50 plants per plot): 31.0%
Leaf surface affected (%) ([3]; 6.25 g a.i./100 l): 3.4%
Leaf surface affected (%) ([3]; 12.5 g a.i./100 l): 4.9%
Leaf surface affected (%) ([3]; 25 g a.i./100 l, 500 l per hectare): 3.9%

O=C(O)c1ccccc1O [Salicylic acid]
Quantity infected plants (%) ([3]; 13.6 g a.i./100 l): 40.7%
Quantity infected plants (%) ([3]; 27.2 g a.i./100 l): 31.5%
Quantity infected plants (%) ([3]; 54.2 g a.i./100 l): 36.3%
Leaf surface affected (%) ([3]; 13.6 g a.i./100 l): 4.7%
Leaf surface affected (%) ([3]; 27.2 g a.i./100 l): 3.9%
Leaf surface affected (%) ([3]; 54.2 g a.i./100 l): 3.5%
